The values that follow come from patent US20200308540A1, “METHODS OF MAKING, EXPANDING, AND USING A HUMAN PROGENITOR T CELL” (REGENTS OF THE UNIVERSITY OF MINNESOTA, priority 2017, published 2020).

Molecules are shown by their SMILES.

The test system of one assay is NSG mice. Nature of the assay: Engraftment of progenitor T cells in NSG mice (thymus, spleen). The settings on record: mouse, in vivo. The procedure: ProT cells generated as described in Example 4 (after 21 days of co-culture) were injected into the liver of 2 day to 5 day old neonatal (NOD/SCID/γcnull (NSG)) mice (3 mice per group) at different cell concentrations/mouse (e.g., 2×10^5 cells, 5×10^5 cells, or 5×10^6 cells in 30 μL, volume). Optionally, 2×10^4 CD34-enriched HSCs, isolated from a UCB unit using the CliniMACS Cell Selection Device (Miltenyi Biotec, Gladbach, Germany) following manufacturer's instruction, were injected simultaneously.
Twelve weeks later, mice were sacrificed, and engraftment of the in vitro-derived ProT cells into immunodeficient mice was assessed by flow cytometry analysis using phenotypic characterization of cells within the thymus and spleen of the recipient mouse. Useful markers for analysis include CD45, CD3/TCR, CD8, CD4, CD5, CD7, and CD1a (antibodies were acquired from eBioscience, San Diego, Calif.).
As shown schematically in FIG. 8, SR1-expanded CD34^+ cells from a UCB unit were put into culture with OP9-DL1 cells for 14 days as described in Example 4. […] Four weeks later the mice were sacrificed and the cells' ability to engraft the thymus was assessed.
Tprogenitors were generated from naïve UCB by co-culture with OP9-DL1 cells for 14 days as described in Example 4. […] Four weeks later the mice were sacrificed and the cells' ability to engraft the thymus was assessed. […]

A further assay has as its system patients. The settings on record: SR1-expanded cord blood; cited from earlier work.
The test system of assay [1] is CD34^+ hematopoietic stem/progenitor cells (HSPCs). Nature of the assay: SR1 expansion culture of umbilical cord blood CD34+ HSPC (15 days). The class given is cell-based, human. The procedure:
Frozen UCB units were thawed using standard methods (Rubinstein et al., Proc Natl Acad Sci USA. 1995; 92:10119-10122). The UCB unit was enriched for CD34^+-cells using the CliniMACS Cell Selection Device (Miltenyi Biotec, Gladbach, Germany) following manufacturer's instructions, and the resulting CD34-enriched cell population was placed in expansion media at a concentration of 5×10^3 cells per milliliter (cells/mL). The expansion culture media included SCF, FLT-3L, TPO, IL-6 (each at 50 ng/ml) and SR1 (750 nM). Cells were cultured in expansion culture media without the addition of antibiotics for 15 days; cytokines were replenished and cells were resuspended at 5×10^3 cells/mL at day 7.
HSC expansion media cultures (Boitano et al. Science. 2010; 329(5997):1345-1348) lasted 15 days prior to freezing.
It was previously reported that naïve-UCB can generate 4- to 5-fold Tprog expansion (Awong et al. Blood. 2009; 114(5):972-982). At least 2×10^5 CD34^+ HSPC are needed for HSCT; but a single UCB unit averages 2.5×10^3 CD34^+ HSPC (Delaney et al. Expert Rev Hematol. 2010; 3(3):273-283). This Example describes an investigation of whether adding SR1 (0.75 μM) to expand CD34^+ HSPC Wagner et al. Cell Stem Cell. 2016; 18(1):144-155) could improve in vitro pro-T generation. CD34^+ HSPC culture reproducibility (FIG. 11A) was characterized. […] 2012; 10(2):120-136).

Assay [2] concerns progenitor T cells (CD7^+ cells). The experiment in a line: OP9-DL1 co-culture of SR1-/UM171-expanded cells to generate progenitor T cells. The settings on record: for CD34 expression during culture with OP9-DL1 cells: cells expanded with compound, then OP9-DL1 culture. The class given is cell-based, human. The procedure:
1. SR1-expanded cells were suspended in 3 mL of OP9 media then seeded into a plate/flask containing irradiated OP9-DL1 cells at 80% confluency. The human cytokines FLT-3L, IL-7, and SCF were added from a 1,000×stock solution (to 1×final concentration). 2. Additional human cytokines FLT-3L, IL-7, and SCF were added from a 1,000×stock solution (to 1×final concentration) every other day during cell culture. 3. At day 5 and every 3 days to 4 days thereafter, media containing cells was removed, and cells and media were passed through a 70 μm sterile nylon mesh or a 40 μm cell strainer into a 50 mL conical tube. Passage through the mesh or strainer removes OP9-DL1 cells but not cells derived from UCBs. PBS (5 mL) was added, and the coculture was disaggregated by vigorous pipetting (using a 5 mL pipette) and passed through the same cell strainer. […] 4. The cells that passed through the cell strainer were centrifuged at 515-585×g for 5 minutes, the supernatant was removed, and the cells were suspended in 1 mL of OP9 media. At this stage, the cells were counted using a hemocytometer (FIG. 2), assayed by flow cytometry (FIG. 3), or co-culture was continued. For continued co-culture, the cells were transferred into a new 6-well plate already containing OP9-DL1 cells at 80% confluency in 2 mL of OP9 media, and human cytokines FLT-3L, IL-7, and SCF were added from a 1,000×stock solution (to 1×final concentration). 5. Cells were harvested as described in steps 3 and 4 at day 14 or day 21 and phenotype was assessed (see FIG. 2, FIG. 3, and FIG. 7) or the cells were injected into a mouse, as described in Example 5. OP9-DL1 were gamma-irradiated (100 Gy) and seeded onto tissue culture flasks. SR1-UCB and naïve-UCB were seeded 2:1 with OP9-DL1 to generate proT-cells after 13-14 days (Schmitt et al. Immunity. 2002; 17(6):749-756). To examine whether SR1-expanded HSPC could generate proT-cells in vitro, SR1-HSPC were co-cultured with OP9-DL1 (FIG. 11A). […] SR1-HSPC and naïve-HSPC co-cultures had similar % CD34^−CD7^+ cells, % CD7^+CD5^+ cells and % CD7^+CD1a^+ cells (FIG. 11C). […] From SR1-HSPC, an approximately 4-fold expansion of pro-Tcells was observed, similar to naïve-HSPC co-cultures (FIG. 11D). Combining SR1-expansion of HSPCs and use of OP9-DL1 co-cultures, a single starting HSPC yielded approximately 2×10^3 cells, a 200-fold greater expansion of SR1-proT cells over naïve proT-cells (FIG. 11E).

The next assay concerns CD34+ stem cells. The conditions noted are these: median; Wagner et al. 2016; cited from earlier work.

For `CC(C)n1cnc2c(NCCc3ccc(O)cc3)nc(-c3csc4ccccc34)nc21` [SR1, StemRegenin-1], the “thymus engraftment of cells treated with the compound, after OP9-DL1 co-culture” value in the assay on NSG mice is reported as “able to engraft the thymus”. For the same compound, in the assay with patients, the “median time to neutrophil engraftment” value is 15 days and the “median time to platelet engraftment” value is 49 days. In assay [1] (SR1 0.75 μM, by day 15), the “fold enhancement of total nuclear cells” value is reported as 252-746 fold, the “fold expansion of CD34^+CD90^+ cells” value is on record as 170-415 fold and the “fold expansion of long-term reconstituting CD34^+CD38^− cells” value is reported as 157-558 fold. Moreover, the “fold expansion of CD34^+ hematopoietic stem/progenitor cells (HSPCs)” value in assay [1] (SR1-expanded umbilical cord blood) is “greater than 250 fold”. Further, the “cells yielded from a single starting HSPC” value in assay [2] (SR1-expansion of HSPCs combined with OP9-DL1 co-culture) is listed as “approximately 2×10^3 cells”. Besides, the “fold increase in ProT cells” value in assay [2] (SR1 expansion of human UCB, then co-culture with Notch ligand cell without SR1) was 2000 fold. Besides, the “CD34 expression during culture with OP9-DL1 cells” value in assay [2] is listed as “lose CD34 expression”. Moreover, the “percentage of culture that is proT cell (CD7^+ cell)” value in assay [2] (flow cytometry after OP9-DL1 culture) is given as “greater than 90%”. For the same compound, the “fold expansion of pro-T cells in OP9-DL1 co-culture” value in assay [2] (from SR1-HSPC, day 14) is on record as “approximately 4 fold”. For the same compound, the “fold greater expansion of SR1-proT cells over naïve proT-cells” value in assay [2] (normalized to initial CD34+ input cell number) is listed as 200 fold. Further, the “fold expansion of CD34+ stem cells” value in the assay with CD34+ stem cells is 330 fold.

Take `Cn1nnc(-c2ccc3c(c2)[nH]c2nc(Cc4ccccc4)nc(NC4CCC(N)CC4)c23)n1` (stereo not shown) [UM171]: the “thymus engraftment of cells treated with the compound, after OP9-DL1 co-culture” value in the assay on NSG mice is “able to engraft the thymus”. Also, in assay [2], the “CD34 expression during culture with OP9-DL1 cells” value is “lose CD34 expression”.
